Earlier results as cited in US11285184B2, “Cannabidiol alkaline composition” (CHIROSYN DISCOVERY TECHNOLOGIES INC., priority 2018, dated 2022).

Details: CBD dissolved in sulfuric acid/acetic acid

For `C=C(C)[C@@H]1CCC(C)=C[C@H]1c1c(O)cc(CCCCC)cc1O` [CBD, 2-[1R-3-methyl-6R-(1-methylethenyl)-2-cyclohexen-1-yl]-5-pentyl-1,3-benzenediol], the “Δ-8-THC formed from CBD” value is listed as 2% and the “Δ-9-THC formed from CBD” value is listed as 52%.
